Test results published in US20160297828A1, “SPIROCYCLIC COMPOUNDS CONTAINING SPIRO[INDOLYL-3,1'-PYRROLO[3,4-C]PYRROLE] CORE AND SULPHUR-CONTAINING AMINO ACID RESIDUES” (priority 2013, published 2016).
Where “and” joins values, the source holds several entries; their conditions need not be identical. Equal entries are not always repeated.

Tests used:
11β-corticosterone = 11β-corticosterone level in venous blood of rats with bilateral carotid occlusion (ELISA); type: in vivo, Wistar rats; conditions: for dynamics in percents in relation to control pathology group / dynamics in percents in relation to the group of pseudo-operated animals / 11β-corticosterone level in venous blood: BCO
Protocol: The neuroprotective effect of 3,2′-spiro-pyrrolo-2-oxindole derivative (SI-86 compound) was studied in Wistar rats on a model of cerebrovascular accident (CVA) of ischemic type in archencephalic pool forming bilateral carotid occlusion (BCO) by carotid artery ligation. The ligations for common carotid arteries was imposed under propofol anesthesia at a dose of 60 mg/kg intraperitoneally (ip), using surgical access to the front of the neck cutting through its white line. The chosen model allows to reproduce the clinical pattern of ischemic stroke and is adequate for clinical study of potential neuroprotective substances (Drug discovery and Evaluation: pharmacological assays/H. Gerhard Vogel (ed.).-2nd ed. 1453p.).
The derivative of 3,2′-spiro-pyrrolo-2-oxindole was investigated in conventionally effective dose of 10 mg/kg […] (iv)—dose which is provided maximum antihypoxic activity of SI-86 compound by the results of our previous study. The reference drugs were injected intraperitoneally (ip). BCO was applied to the rats of control pathology and 0.9% NaCI solution was administered as therapy calculated for 2 ml/kg ip.
Pseudo-operated rats were exposed to all interventions (anesthesia, skin incision, dissection of vessels) except arteries ligation that leveled traumatic impact of experimental conditions.
To determine a corticosterone level (species-specific cortisol analogue in rats, which is also a substrate for 11β-HSD1) in the corresponding period (4 th and 21 st CVA day) in rat by sagittal sinus puncture, blood was sampled (0.2-0.4 ml). The cortisol level was measured by ELISA using a CORTICOSTERONEE KIT set (Germany) on the instrument of the company “Hipson” (Czech Republic).

[1] = system: rats with intracerebral hemorrhage; assay: Conditioned response of passive avoidance (CRPA) in rats with intracerebral hemorrhage; type: in vivo; conditions: 21st day, n = 15; for Latent period for entrance into dark compartment, prior study: SI-86 10 mg/kg iv, mexydol 100, citocoline 250, actovegin 16, pyracetam 400 mg/kg ip
Protocol: (§1) Neuroprotective effect of 3,2′-spiro-pyrrolo-2-oxindole derivative (SI-86 compound) was studied on IUD model of moderate severity modeled under propofol anesthesia (60 mg/kg intraperitoneally (ip)) by autoblood administration into the brain internal capsule (stereotactic coordinates of the projection: H=7.0 mm, L=3.0 mm, A=1.5 mm from bregma) ([…]) (Method for reproduction of intracerebral hemorrhage in rats/O. K. Yarosh, S. V. Kyrychenko, S. P. Halimonchyk [et al.]//Circulation and hemostasis.-2005.-No. 1.-P. 77-81). The chosen model allows to reproduce clinical pattern of […] and is adequate for clinical study of potential neuroprotective agents.
(§2) As comparators the following drugs were used: mexydol (“Mexydol” UC Pharmasoft, Russia), 100 mg/kg; citicoline (“Somazina” Ferrer International, SA, Spain), 250 mg/kg; aktovegin (“Aktovegin”, Nycomed, Austria), 16 mg/kg pyracetam (“Pyracetam” Darnitsa, Ukraine), 400 mg/kg. According to the latest clinical guidelines regarding the treatment of patients with CVA approved by the Ministry of Health of Ukraine (Order No. 602 dated 3 Aug. 2012), all these drugs are allowed to be included into schemes for intensive patients therapy with CVA as neuroprotective agents. They were used at recommended doses for preclinical studies (McGrow C. P. Experimental Cerebral Infarction Effects of Pentobarbital in Mongolian Gerbils/C. P. McGrow//Arch. Neurol.-1977.-Vol. 34, No. 6.-P. 334-336). Experimental therapy of acute cerebral ischemia with SI-86 compound and comparator started 1 hour after IUD once a day for 21 days. The SI-86 derivative was investigated in conventionally effective dose of 10 mg/kg […] (iv)-dose that according to the results of our previous study provides maximum antihypoxic activity of SI-86 compound. Reference drugs were injected intraperitoneally (ip). Rats of control pathology group were injected by autoblood and as therapy 0.9% NaCI solution was administered calculated for 2 ml/kg […].
(§3) Evaluation of the ability of animals to learn and memorize of aversive stimulus was examined in the test of conditioned response of passive avoidance (CRPA). The technique is based on innate rat instinct to limited shadowy space. The study in rats was conducted in two-compartment unit consisted of two sections—light and dark. An animal was arranged into light compartment, fixing latency time for entering into the dark compartment, wherein rat received current irritation and ran in the light compartment. CRPA retention was tested every other day under latency time change of rat entering into the dark compartment. Also the number of animals was noted not fully entered the dark chamber. Cerebroprotective efficiency criteria of studied compounds were also animal death term (days) and their mortality rate (in %).

[2] = system: neuron-specific enolase (NSE); assay: Neuron-specific enolase (NSE) activity in rats with bilateral carotid occlusion (ELISA); type: in vivo; conditions: BCO; for NSE activity (dynamics of neurodestructive changes): n = 7
Protocol: The derivative of 3,2′-spiro-pyrrolo-2-oxindole was studied in conventionally effective dose of 10 mg/kg […] (iv)—dose that by the results of our previous study provided maximum antihypoxic activity of the SI-86compound. Reference drugs were injected intraperitoneally (ip). […] BCO was made to rats of control pathology and as therapy 0.9% NaCI solution was administered calculated for 2 ml/kg ip.
Pseudooperative rats were exposed to all interventions (anesthesia, skin incision, dissection of vessels) except arteries ligation that leveled traumatic effect of experimental conditions.
To determine neurospecific enolase, specific marker of cerebral ischemia,—to the period (4 th and 21 st day of CVA) in rat's blood was sampled by sagittal sinus puncture (0.2-0.4 ml). NSE activity was measured by ELISA using a set NSE EIA KIT (DAI, USA) on the instrument of the company “Hipson” (Czech Republic).

[3] = system: rats with intracerebral hemorrhage; assay: Neurological deficit (C. P. McGrow stroke-index scale) in rats with intracerebral hemorrhage; type: in vivo; conditions: n = 15
Protocol: as §1, §2
Neurological deficit in animals with acute CVA respectively in acute (4th day) and recovery (21 st day) periods was measured on C. P. McGrow stroke-index scale. The state severity was determined by amount of relevant points: to 3 points-mild, 3 to 7 points-average, above 7 points-severe degree. Pareses, paralyses of limbs, tremors, circus movement, ptoses, lateral positions, ability of rats to be maintained at the core of 15 cm diameter, rotating at the rate of 3 rpm were noted. The animals were tested daily by displaying the amount of points:
one-sided semi-ptosis—0.5 points; one-sided ptosis—1 point; tremor—0.5 points; circus movements—0.5 points; pareses of limbs (for each limb)—1 point; paralyses of limbs (for each limb)—2 points; lateral position—3 points; disability to maintain on rotating rod during 4 minutes—3 points.

[4] = system: neuron-specific enolase (NSE); assay: Neuron-specific enolase (NSE) activity in rats with intracerebral hemorrhage (ELISA); type: in vivo; conditions: for NSE activity (dynamics of neurodestructive changes): acute cerebral hemorrhage, n = 7; for enzyme activity decreased in relation to the control pathology group: hemorrhage
Protocol: The derivative of 3,2′-spiro-pyrrolo-2-oxindole was investigated in conventionally effective dose of 10 mg/kg […] (iv)—dose that according to the results of our previous studies provided maximum antihypoxic activity of SI-86 compound. Reference drugs were injected intraperitoneally (ip). […] Autoblood was injected to rats with control pathology and 0.9% NaCI solution was administered as therapy calculated for 2 ml/kg ip.
Psevdooperated rats were exposed to all interventions (anesthesia, craniotomy) with the exception of autoblood administration that leveled traumatic impact of experimental conditions.
To determine neuron-specific enolase, the specific marker of cerebral ischemia,—for corresponding period (4 th and 21 st day of CVA) in rats, blood was sampled by sagittal sinus puncture (0.2-0.4 ml). NSE activity was measured by ELISA using a set NSE EIA KIT (DAI, USA) on the instrument of the company “Hipson” (Czech Republic).

[5] = system: rats with intracerebral hemorrhage; assay: Lethality of rats with intracerebral hemorrhage of average severity; type: in vivo
Protocol: The chosen model allows to reproduce clinical pattern of […] and is adequate for clinical study of potential neuroprotective agents.
As comparators the following drugs were used: mexydol (“Mexydol” UC Pharmasoft, Russia), 100 mg/kg; citicoline (“Somazina” Ferrer International, SA, Spain), 250 mg/kg; aktovegin (“Aktovegin”, Nycomed, Austria), 16 mg/kg pyracetam (“Pyracetam” Darnitsa, Ukraine), 400 mg/kg. According to the latest clinical guidelines regarding the treatment of patients with CVA approved by the Ministry of Health of Ukraine (Order No. 602 dated 3 Aug. 2012), all these drugs are allowed to be included into schemes for intensive patients therapy with CVA as neuroprotective agents. They were used at recommended doses for preclinical studies (McGrow C. P. Experimental Cerebral Infarction Effects of Pentobarbital in Mongolian Gerbils/C. P. McGrow//Arch. Neurol.-1977.-Vol. 34, No. 6.-P. 334-336). Experimental therapy of acute cerebral ischemia with SI-86 compound and comparator started 1 hour after IUD once a day for 21 days. […] Reference drugs were injected intraperitoneally (ip). Rats of control pathology group were injected by autoblood and as therapy 0.9% NaCI solution was administered calculated for 2 ml/kg iv.
Pseudo-operated rats were exposed to all interventions (anesthesia, craniotomy) excluding autoblood administration that leveled traumatic impact of experimental conditions.
as §3
Quantitative data were processed using statistical StatPlus 2009 processing. The statistical significance of differences was assessed by Fisher's angular transformation (lethality outcome), also parametric t Student criterion were used in case of normal distribution of variation series, nonparametric W White criterion—in its absence.

[6] = day 4, SI-86 10 mg/kg iv, citocoline 250 mg/kg ip
[7] = day 4, SI-86 10 mg/kg iv, mexydol 100, citocoline 250, actovegin 16, pyracetam 400 mg/kg ip
[8] = 12 h, SI-86 10 mg/kg iv, mexydol 100, citocoline 250, actovegin 16, pyracetam 400 mg/kg

C[N+](C)(C)CCOP(=O)(O)OP(=O)([O-])OC[C@H]1O[C@@H](n2ccc(N)nc2=O)[C@H](O)[C@@H]1O [citocoline, reference compound]
dynamics in percents in relation to control pathology group (11β-corticosterone; day 4): [−41.7%] | dynamics in percents in relation to the group of pseudo-operated animals (11β-corticosterone; day 4): (+126.9%) | 11β-corticosterone level in venous blood (11β-corticosterone; [6]): 272.79 ± 1.95°* ng/ml | dynamics in percents in relation to control pathology group (11β-corticosterone; day 21): [−30.2%] | dynamics in percents in relation to the group of pseudo-operated animals (11β-corticosterone; day 21): (+152.7%) | 11β-corticosterone level in venous blood (11β-corticosterone; day 21, same doses): 235.52 ± 7.82°*^• ng/ml | corticosterone concentration in sagittal sinus blood decreased in relation to the control pathology group (11β-corticosterone; after 96 hours): 41.7% | corticosterone concentration in sagittal sinus blood decreased in relation to the control pathology group (11β-corticosterone; after 21 days): 30.2% | Latent period for entrance into dark compartment, prior study [1]: 12.50 ± 0.75°*^# s | enzyme activity decreased in relation to the control pathology group ([2]; 96 hours): 1.27 times | enzyme activity decreased in relation to the control pathology group ([2]; 21 days): 2.03 times | NSE activity (dynamics of neurodestructive changes) [2, 6]: 0.972 ± 0.010 | NSE activity (dynamics of neurodestructive changes) ([2]; day 21, same doses): 0.385 ± 0.010 | neurological deficit, average point under C. P. McGrow scale [3, 7]: 5.0 points and 5.00 ± 0.18°*^#$ points | neurological deficit, average point under C. P. McGrow scale ([3]; day 21, same doses): 3.1 points and 3.10 ± 0.15°*^#&$ points | NSE activity (dynamics of neurodestructive changes) [4, 6]: 1.292 ± 0.069 | NSE activity (dynamics of neurodestructive changes) ([4]; day 21, same doses): 0.309 ± 0.05 | enzyme activity decreased in relation to the control pathology group ([4]; 96 hours): 2.2 times | enzyme activity decreased in relation to the control pathology group ([4]; 21 days): 3.1 times

NC(=O)CN1CCCC1=O [pyracetam]
Latent period for entrance into dark compartment, prior study [1]: 15.90 ± 0.51°* s | Latent period for entrance into dark compartment, 24 hours after study ([1]; same doses): 71.10 ± 2.21 s | Lethality, % [5, 8]: 4.9% | Lethality, abs. [5, 8]: 2 | Lethality, % ([5]; 24 h, same doses): 14.6% | Lethality, abs. ([5]; 24 h, same doses): 6 | Lethality, % ([5]; 48 h, same doses): 22% | Lethality, abs. ([5]; 48 h, same doses): 9 | Lethality, % ([5]; 72 h, same doses): 24.4% | Lethality, abs. ([5]; 72 h, same doses): 10 | Lethality, % ([5]; 96 h, same doses): 27.5% | Lethality, abs. ([5]; 96 h, same doses): 11 | reduction of mortality in rats at the end of the observation period relative to control ([5]; within 4 days of therapy, same doses): no significant impact | neurological deficit, average point under C. P. McGrow scale [3, 7]: 6.90 ± 0.39° points | neurological deficit, average point under C. P. McGrow scale ([3]; day 21, same doses): 4.1 points and 4.10 ± 0.15°* points
